Data reported in PubChem BioAssay (NCI).
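Method: 48-hour compound exposure of cells in 96-well plates, five concentrations, linear interpolation of endpoints. The concentration for full growth arrest is given as TGI.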

What was measured:
Test in all cases: NCI anticancer screen, dose series, 48 h
[1] = system: SF-268 CNS
[2] = system: UACC-257 melanoma
[3] = system: KM12 colon
[4] = system: LOX IMVI melanoma
[5] = system: 786-0 renal
[6] = system: SNB-19 CNS
[7] = system: OVCAR-3 ovarian
[8] = system: HCT-116 colon
[9] = system: NCI-H522 lung
[10] = system: ACHN renal
[11] = system: HOP-92 NSCLC
[12] = system: MCF7 breast

| SMILES | TGI [1] | TGI [2] | TGI [3] | TGI [4] | TGI [5] | TGI [6] | TGI [7] | TGI [8] | TGI [9] | TGI [10] | TGI [11] | TGI [12] |
| --- | --- | --- | --- | --- | --- | --- | --- | --- | --- | --- | --- | --- |
| S=C(NCCc1ccccn1)N/N=C/c1ccccn1 | > 100 µM | 1.77 µM | > 100 µM | 22.5 µM | > 89.7 µM | > 100 µM | > 100 µM | < 0.01 µM | 1.57 µM | 4.82 µM | – | – |
| CC(=O)Oc1cc(S(=O)(=O)Nc2n[nH]c(Nc3ccc(C)cc3)n2)c(S)cc1Cl | – | > 100 µM | > 100 µM | > 100 µM | > 100 µM | > 100 µM | > 100 µM | > 100 µM | > 100 µM | > 100 µM | > 100 µM | – |
| Cc1cc(S(=O)(=O)N2CCNNC2=O)c(S)cc1Cl | > 100 µM | > 100 µM | > 100 µM | > 100 µM | 43 µM | > 100 µM | > 100 µM | – | 66.6 µM | > 100 µM | > 100 µM | > 100 µM |
| CC(=O)OCC1OC(n2ccc(=O)[nH]c2=O)C(OC(C)=O)C(OC(C)=O)C1OC(C)=O (centres undefined) | > 100 µM | > 100 µM | > 100 µM | > 100 µM | > 100 µM | > 100 µM | > 100 µM | > 100 µM | > 100 µM | > 100 µM | > 100 µM | – |
| CNC(=O)NCNC(=O)NC | – | > 100 µM | > 100 µM | > 100 µM | > 100 µM | – | > 100 µM | > 100 µM | – | – | > 100 µM | – |
| Cc1cccc(-n2c(N)c(-c3nc4ccccc4[nH]3)sc2=S)c1 | > 100 µM | 67.1 µM | 52.2 µM | 58 µM | 54.1 µM | > 100 µM | 62.1 µM | – | 75.7 µM | 99 µM | – | – |
| CCCCn1c(CSc2ccc(Cl)cc2)c(C(=O)OCC)c2cc(OC)c(Br)cc21 | > 100 µM | > 100 µM | > 100 µM | > 100 µM | > 100 µM | > 100 µM | > 100 µM | > 100 µM | > 100 µM | > 100 µM | – | – |
| Cc1ccc(C2(c3ccc(Cl)cc3)c3ccccc3C3=NCCN32)cc1 (centres undefined) | 31.5 µM | 20.7 µM | 22.8 µM | 27.7 µM | 26.9 µM | 28.2 µM | 24.9 µM | 10.1 µM | – | 19.8 µM | 18.1 µM | 20.5 µM |
| COc1ccc(/C(=N\NC(=O)NN)C(c2ccc(OC)cc2)C2(O)C(=O)Nc3c(Cl)cc(Cl)cc32)cc1 (centres undefined) | > 100 µM | > 100 µM | > 100 µM | > 100 µM | > 100 µM | > 100 µM | > 100 µM | > 100 µM | – | > 100 µM | > 100 µM | – |
| COc1ccc(/C=C/C(=O)/C=C/c2ccc(OC)cc2OC)c(OC)c1 | 33.7 µM | 39.9 µM | > 100 µM | 18.1 µM | 29 µM | 82.8 µM | 7.37 µM | 21.3 µM | 8.7 µM | 21.8 µM | 67.5 µM | – |
| CCOC(=O)C(=O)C=P(c1ccccc1)(c1ccccc1)c1ccccc1 | > 100 µM | > 100 µM | > 100 µM | > 100 µM | > 100 µM | > 100 µM | > 100 µM | > 100 µM | > 100 µM | > 100 µM | > 100 µM | – |
| COC1CCON1C(=O)c1ccccc1 (centres undefined) | > 10 µM | > 10 µM | – | > 10 µM | > 10 µM | > 10 µM | > 10 µM | > 10 µM | > 10 µM | > 10 µM | – | > 10 µM |
| CCOC(=O)C1SC(=Nc2ccc(OC)c(OC)c2)N=C1C (centres undefined) | > 100 µM | > 100 µM | > 100 µM | > 100 µM | 90.2 µM | > 100 µM | 86.7 µM | > 100 µM | 32.3 µM | > 100 µM | > 100 µM | – |
| C=CCNC(=S)N1CC(C)C(=O)Nc2cc(Cl)ccc21 (centres undefined) | > 100 µM | > 100 µM | > 100 µM | – | > 100 µM | > 100 µM | – | > 100 µM | > 100 µM | > 100 µM | > 100 µM | – |
| CC1(c2sccc2Cl)CC(c2sccc2Cl)=C(C#N)C(=C(C#N)C#N)N1 (centres undefined) | 38.5 µM | 39.2 µM | 46 µM | 37.8 µM | 34.5 µM | 38.5 µM | 29.8 µM | 32.2 µM | 35.8 µM | 32.5 µM | – | 48.5 µM |
| O=C(Nc1ccc(Cl)cc1C(F)(F)F)C(=O)C1CCCS1(=O)=O (centres undefined) | > 100 µM | > 100 µM | > 100 µM | > 100 µM | > 100 µM | > 100 µM | > 100 µM | > 100 µM | – | > 100 µM | > 10 µM | – |
| CCOP(=O)(OCC)/C(C#N)=C/c1cccn1C(C)C | > 100 µM | > 100 µM | > 100 µM | > 100 µM | > 100 µM | > 100 µM | > 100 µM | > 100 µM | > 100 µM | > 100 µM | > 100 µM | – |
| Clc1cc2nn(C3CCCCO3)nc2cc1Cl (centres undefined) | – | > 100 µM | > 100 µM | – | > 100 µM | > 100 µM | > 100 µM | > 100 µM | > 100 µM | > 100 µM | – | > 100 µM |
| N#CC(/C(CCC(=O)Nc1ccc(Cl)cc1)=N/NC(=O)c1cc2ccccc2cc1O)c1ccccc1 (centres undefined) | > 100 µM | > 100 µM | > 100 µM | 73.1 µM | > 100 µM | > 100 µM | > 100 µM | > 100 µM | – | > 100 µM | > 100 µM | – |
| S=C1NC2=C(COc3ccccc32)C(c2ccc(Cl)cc2)N1 (centres undefined) | 39.7 µM | 41.6 µM | 32.7 µM | 30.3 µM | 34.5 µM | 45.3 µM | 28.7 µM | 28.9 µM | – | 43.6 µM | – | 38.4 µM |
| COc1ccc(/C(C)=N/NC(=O)c2ccncc2)c(OC)c1 | > 10 µM | > 10 µM | > 10 µM | > 10 µM | > 10 µM | – | – | – | – | – | > 10 µM | > 10 µM |
